Our source for the IC50 values is patent US10336768B2, “Pyrimidine compounds and methods using the same” (Yuma Therapeutics, Inc., priority 2014, dated 2019).

The subject of this experiment is T1, His-tagged-Hsp90.
T1 construct: fused on or other part: His tag (captured on Ni2+-coated beads)
Nature of the experiment: Hsp90 biochemical assay (AlphaLISA). The class given is binding. The protocol:
This assay employs biotinylated geldanamycin, His-tagged-Hsp90, and Ni^+2 coated beads. This assay is homogenous and miniaturized to 384-well plates. Measurement of binding activity was performed on an Envision reader. […] This assay is the primary assay for evaluating compounds of the invention.
(In general: In Alpha technology, singlet oxygen from a donor bead excites a nearby acceptor bead.)

Setting [1] is: IC50 class, AlphaLISA (primary assay), read-out: Hsp90 inhibitory activity.

Where two headings read alike, the source gives them in different places.

In the case of `CN(C(=O)c1cc2c(-c3c(Cl)cc(Cl)c4c3CCO4)nc(N)nc2s1)C1COC1` [compound 72, 2-amino-4-(5,7-dichloro-2,3-dihydrobenzofuran-4-yl)-N-methyl-N-(oxetan-3-yl)thieno[2,3-d]pyrimidine-6-carboxamide], the IC50 under setting [1] lay within 1 to 4 µM.
Turning to `Cn1ccc2c(-c3c(Cl)cc(Cl)c4c3CCO4)nc(N)nc21` [compound 30], the IC50 under setting [1] was over 10 µM.
For the compound `CCNC(=O)N1Cc2nc(N)nc(-c3c(Cl)cc(Cl)c4c3CCO4)c2C1` [compound 17], under setting [1], the IC50 was over 10 µM.
Still for that read-out and setting: with `COc1cc(-c2cc(SC)nc(N)n2)c(Cl)cc1Cl` [compound 35] the figure was under 1 µM.
For the compound `Nc1nc(O)cc(-c2c(Cl)cc(Cl)c3c2CCO3)n1` [compound 53, 2-amino-6-(5,7-dichloro-2,3-dihydrobenzofuran-4-yl)pyrimidin-4-ol], under setting [1], the IC50 was over 10 µM.
As for `COc1cc(-c2cc(C)nc(N)n2)c(C(F)(F)F)cc1Cl` [compound 1], the IC50 under setting [1] was over 10 µM.
As for `CNc1cc(-c2c(Cl)cc(Cl)c3c2CCO3)nc(N)n1` [compound 33], under setting [1], the IC50 was in the range of 4 to 10 µM.
For the compound `Nc1nc(Cl)c(N)c(-c2c(Cl)cc(Cl)c3c2CCO3)n1` [compound 52, 4-chloro-6-(5,7-dichloro-2,3-dihydrobenzofuran-4-yl)pyrimidine-2,5-diamine], the IC50 under setting [1] is under 1 µM.
For the compound `CN(CC(F)(F)F)C(=O)c1cc2c(-c3c(Cl)cc(Cl)c4c3CCO4)nc(N)nc2s1` [compound 70, 2-amino-4-(5,7-dichloro-2,3-dihydrobenzofuran-4-yl)-N-methyl-N-(2,2,2-trifluoroethyl)thieno[2,3-d]pyrimidine-6-carboxamide], the IC50 under setting [1] fell in the range of 4 to 10 µM.
`CCNC(=O)Cn1ccc2c(-c3c(Cl)cc(Cl)c4c3CCO4)nc(N)nc21` [compound 32]: the IC50 under setting [1] is over 10 µM.
As for `COc1cc(-c2nc(N)nc(SC)n2)c(Cl)cc1Cl` [compound 34], the IC50 under setting [1] is under 1 µM.
Take `CON(C)C(=O)c1cc2c(-c3c(Cl)cc(Cl)c4c3CCO4)nc(N)nc2s1` [compound 75, 2-amino-4-(5,7-dichloro-2,3-dihydrobenzofuran-4-yl)-N-methoxy-N-methylthieno[2,3-d]pyrimidine-6-carboxamide]: under setting [1], the IC50 is under 1 µM.
As for `Nc1nc(-c2c(Cl)cc(Cl)c3c2CCO3)c2cc(C(=O)N3CCCC3)sc2n1` [compound 69, (2-amino-4-(5,7-dichloro-2,3-dihydrobenzofuran-4-yl)thieno[2,3-d]pyrimidin-6-yl)(pyrrolidin-1-yl)methanone], the IC50 under setting [1] lay within 1 to 4 µM.
As for `Nc1nc(-c2c(Cl)cc(Cl)c3c2CCO3)c2cc(C(=O)N3CCOCC3)sc2n1` [compound 68, (2-amino-4-(5,7-dichloro-2,3-dihydrobenzofuran-4-yl)thieno[2,3-d]pyrimidin-6-yl)(morpholino)methanone], the IC50 under setting [1] fell in the range of 1 to 4 µM.
Still for that read-out and setting: as for `Nc1nc(-c2c(Cl)cc(Cl)c3c2CCO3)c2cc(C(=O)NCC(F)(F)F)sc2n1` [compound 61, 2-amino-4-(5,7-dichloro-2,3-dihydrobenzofuran-4-yl)-N-(2,2,2-trifluoroethyl)thieno[2,3-d]pyrimidine-6-carboxamide], the figure is under 1 µM; as for `COc1ccc(Cl)c(-c2cc(Cl)nc(N)n2)c1` [Compound 78], 1 to 4 µM; as for `Nc1nc(-c2c(Cl)cc(Cl)c3c2CCO3)c2cc(C(=O)NC3CCC3)sc2n1` [compound 65, 2-amino-N-cyclobutyl-4-(5,7-dichloro-2,3-dihydrobenzofuran-4-yl)thieno[2,3-d]pyrimidine-6-carboxamide], under 1 µM.
Turning to `CNC(=O)c1cc2c(-c3c(Cl)cc(Cl)c4c3CCO4)nc(N)nc2s1` [compound 63, 2-amino-4-(5,7-dichloro-2,3-dihydrobenzofuran-4-yl)-N-methylthieno[2,3-d]pyrimidine-6-carboxamide], the IC50 under setting [1] is under 1 µM.
Still for that read-out and setting: as for `Nc1nc(Cl)cc(-c2c(Cl)cc(Cl)c3c2CCO3)n1` [compound 49, 4-chloro-6-(5,7-dichloro-2,3-dihydrobenzofuran-4-yl)pyrimidin-2-amine], the figure is under 1 µM; as for `Nc1nc(-c2c(Cl)cc(Cl)c3c2CCO3)cc(C(F)(F)F)n1` [compound 50, 4-trifluoromethyl-6-(5,7-dichloro-2,3-dihydrobenzofuran-4-yl)pyrimidin-2-amine], 1 to 4 µM.
`COc1cc(-c2nc(N)nc3c2CCC3)c(Cl)cc1F` [compound 11, 4-(2-chloro-4-fluoro-5-methoxyphenyl)-6,7-dihydro-5H-cyclopenta[d]pyrimidin-2-amine]: the IC50 under setting [1] lay in the range of 4 to 10 µM.
Regarding `N#CCCNC(=O)c1cc2c(-c3c(Cl)cc(Cl)c4c3CCO4)nc(N)nc2s1` [compound 59, 2-amino-N-(2-cyanoethyl)-4-(5,7-dichloro-2,3-dihydrobenzofuran-4-yl)thieno[2,3-d]pyrimidine-6-carboxamide], the IC50 under setting [1] is under 1 µM.
As to `Cc1cc(-c2c(Cl)cc(Cl)c3c2CCO3)nc(N(C)C)n1` [compound 4, 4-(5,7-Dichloro-2,3-dihydrobenzofuran-4-yl)-N,N,6-trimethylpyrimidin-2-amine], the IC50 under setting [1] is over 10 µM.
Consider `Nc1nc2c(c(-c3c(Cl)cc(Cl)c4c3CCO4)n1)CCCC2` [compound 15, 4-(5,7-dichloro-2,3-dihydrobenzofuran-4-yl)-5,6,7,8-tetrahydroquinazolin-2-amine], for which, under setting [1], the IC50 lay within 4 to 10 µM.
Turning to `CC(C)NCCCn1c(Sc2cc3c(cc2I)OCO3)nc2c(N)ncnc21` [PU-H71, reference compound], the IC50 (known Hsp90 inhibitor, biotinylated geldanamycin, read-out: IC50 (AlphaLISA assay validation)) was 0.06 µM.
Consider `CSc1cc(-c2c(Cl)cc(Cl)c3c2CCO3)nc(N)n1` [compound 51, 4-thiomethyl-6-(5,7-dichloro-2,3-dihydrobenzofuran-4-yl)pyrimidin-2-amine], for which the IC50 under setting [1] was under 1 µM.
Consider `COC(=O)n1ccc2nc(N)nc(-c3c(Cl)cc(Cl)c4c3CCO4)c21` [compound 54, Methyl 2-amino-4-(5,7-dichloro-2,3-dihydrobenzofuran-4-yl)-5H-pyrrolo[3,2-d]pyrimidine-5-carboxylate], for which, under setting [1], the IC50 is over 10 µM.
For `CN(C)C(=O)c1cc2c(-c3c(Cl)cc(Cl)c4c3CCO4)nc(N)nc2s1` [compound 66, 2-amino-4-(5,7-dichloro-2,3-dihydrobenzofuran-4-yl)-N,N-dimethylthieno[2,3-d]pyrimidine-6-carboxamide], the IC50 under setting [1] was under 1 µM.
On the same count and under the same terms, with `CCNC(=O)Cn1ccc2nc(N)nc(-c3c(Cl)cc(Cl)c4c3CCO4)c21` [compound 31] the figure was over 10 µM.
Take `COc1cc(-c2nc(N)nc(-c3cc(OC)c(Cl)cc3Cl)n2)c(Cl)cc1Cl` [compound 37]: the IC50 under setting [1] was over 10 µM.
On to `CN(CCC#N)C(=O)c1cc2c(-c3c(Cl)cc(Cl)c4c3CCO4)nc(N)nc2s1` [compound 71, 2-amino-N-(2-cyanoethyl)-4-(5,7-dichloro-2,3-dihydrobenzofuran-4-yl)-N-methylthieno[2,3-d]pyrimidine-6-carboxamide], for which the IC50 under setting [1] was under 1 µM.
For `CCC(=O)c1cc2c(-c3c(Cl)cc(Cl)c4c3CCO4)nc(N)nc2s1` [compound 76, 1-(2-amino-4-(5,7-dichloro-2,3-dihydrobenzofuran-4-yl)thieno[2,3-d]pyrimidin-6-yl)propan-1-one], the IC50 under setting [1] is under 1 µM.
With `CNc1nc(C)cc(-c2c(Cl)cc(Cl)c3c2CCO3)n1` [compound 3, 4-(5,7-Dichloro-2,3-dihydrobenzofuran-4-yl)-N,6-dimethylpyrimidin-2-amine], under setting [1], the IC50 is over 10 µM.
